The values that follow come from patent US10428080B2, “TBK/IKK inhibitor compounds and uses thereof” (Merck Patent GmbH, priority 2015, dated 2019).

Structures can show the parent of a compound that is named as a salt.

One test concerns the target T1, TBK1 (Homo sapiens, UniProt Q9UHD2).
T1 sequence (Q9UHD2 1-729): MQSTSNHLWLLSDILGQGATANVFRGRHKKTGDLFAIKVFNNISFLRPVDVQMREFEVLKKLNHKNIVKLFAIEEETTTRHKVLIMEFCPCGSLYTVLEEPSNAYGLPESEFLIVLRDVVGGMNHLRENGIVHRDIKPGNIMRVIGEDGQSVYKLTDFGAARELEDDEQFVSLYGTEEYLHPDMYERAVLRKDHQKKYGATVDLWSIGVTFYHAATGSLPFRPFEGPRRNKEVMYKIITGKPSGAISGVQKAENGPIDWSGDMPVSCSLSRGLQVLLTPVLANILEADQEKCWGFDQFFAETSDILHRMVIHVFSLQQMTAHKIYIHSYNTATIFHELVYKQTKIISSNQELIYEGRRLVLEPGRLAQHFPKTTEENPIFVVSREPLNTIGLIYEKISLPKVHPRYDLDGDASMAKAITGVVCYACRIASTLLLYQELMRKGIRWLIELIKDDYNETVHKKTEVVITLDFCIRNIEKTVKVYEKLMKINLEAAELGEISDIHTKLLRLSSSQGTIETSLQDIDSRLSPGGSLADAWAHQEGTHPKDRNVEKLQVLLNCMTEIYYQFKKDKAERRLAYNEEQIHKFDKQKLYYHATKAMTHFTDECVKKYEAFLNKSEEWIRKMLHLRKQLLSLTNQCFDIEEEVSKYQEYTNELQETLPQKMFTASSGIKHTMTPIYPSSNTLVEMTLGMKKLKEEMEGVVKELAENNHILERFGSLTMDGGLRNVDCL
Kind of test: TBK Biochemical Assay. The conditions noted are these: read-out: TBK1 IC50. As to the method:
Example 482: TBK Biochemical Assay
Test compounds were transferred into Labcyte polypropylene 384 well plates (P055-25) and diluted to 3 mM using DMSO. 3 mM test compounds were dispensed using Labcyte ECHO dose response module into Greiner 784075 plates (columns 3-12 and 13-22, 10 point 1:4) so that high concentration was 30 uM final. 100 uM of a reference compound (1 uM final high concentration). Backfilling was performed if necessary so that all wells contain 1% DMSO final: […]
add 75 nl DMSO/well into columns 1, 2 and 24 using Labcyte Echo. add 75 nl 1.0 mM staurosporine/well into column 23 using Labcyte Echo ([…]) add 4.5 ul enzyme/well using multidrop dispenser add 3 ul substrate/well using multidrop dispenser incubate at 25° C. in Heidolph incubator for 90 min. add 7.5 ul 2× stop buffer using multidrop dispenser read on labchip ez reader II using TBK1.job
(§1) Raw data files were opened in the Caliper LabChip Reviewer program (Version 3.0.265.0 SP2) and peak assignments were adjusted to reflect “substrate first” with the software's post-run analysis options. A spline-fit baseline was applied using the software's analysis algorithm.

In a further test the target is T2, IKKε (Homo sapiens, UniProt Q14164).
T2 sequence (Q14164 1-716): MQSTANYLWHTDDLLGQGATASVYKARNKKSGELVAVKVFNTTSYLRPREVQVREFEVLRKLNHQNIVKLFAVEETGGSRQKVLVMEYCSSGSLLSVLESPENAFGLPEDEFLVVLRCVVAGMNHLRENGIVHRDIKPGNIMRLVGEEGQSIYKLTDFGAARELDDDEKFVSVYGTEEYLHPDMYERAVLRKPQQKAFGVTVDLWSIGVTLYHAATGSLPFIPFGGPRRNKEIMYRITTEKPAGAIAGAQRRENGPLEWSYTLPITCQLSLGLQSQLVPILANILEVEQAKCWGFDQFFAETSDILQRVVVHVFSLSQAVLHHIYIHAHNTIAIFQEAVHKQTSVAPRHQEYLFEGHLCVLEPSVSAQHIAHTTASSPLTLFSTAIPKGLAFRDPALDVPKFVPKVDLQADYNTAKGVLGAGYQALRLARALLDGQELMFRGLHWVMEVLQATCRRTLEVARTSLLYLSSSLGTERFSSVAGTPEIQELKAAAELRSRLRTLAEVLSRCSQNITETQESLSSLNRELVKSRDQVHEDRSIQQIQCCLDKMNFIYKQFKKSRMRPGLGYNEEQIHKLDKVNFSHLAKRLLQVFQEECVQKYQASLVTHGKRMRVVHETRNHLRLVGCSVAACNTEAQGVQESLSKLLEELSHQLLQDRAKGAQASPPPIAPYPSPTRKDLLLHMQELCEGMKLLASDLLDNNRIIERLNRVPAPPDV
Kind of test: IKKe Biochemical Assay. The settings on record: read-out: IKKε IC50. The protocol: Test compounds were transferred into Labcyte polypropylene 384 well plates (P055-25) and diluted to 3 mM using DMSO. 3 mM test compounds were dispensed using Labcyte ECHO dose response module into (Greiner 784075 plates (columns 3-12 and 13-22, 10 point 1:4) so that high concentration was 30 uM final. 100 uM of a reference compound (1 uM final high concentration). Backfilling was performed if necessary so that all wells contain 1% DMSO final: […]
add 75 nl DMSO/well into columns 1, 2 and 24 using Labcyte Echo. add 75 nl 1.0 mM staurosporine/well into column 23 using Labcyte Echo (10 uM final) add 4.5 ul enzyme/well using multidrop dispenser add 3 ul substrate/well using multidrop dispenser incubate at 25° C. for 90 min. add 7.5 ul 2× stop buffer read on labchip ez reader II using IKKε. job
as §1

The term IC50 denotes the midpoint of a concentration-inhibition curve. Take `CN(C)C(=O)c1ccc(-c2cc3nccc(-c4ccc(OC5CCNCC5)c(C#N)c4)c3o2)nc1` [Compound 190]: the IC50 at TBK1 is above 5000 nM; at IKKε it was 100 to 1000 nM. Turning to `COc1nc(C(=O)N(C)C)ccc1-c1cc2nccc(-c3ccc(OC4CCOCC4)c(C#N)c3)c2o1` [Compound 271, 5-(7-(3-cyano-4-(tetrahydro-2H-pyran-4-yloxy)phenyl)furo[3,2-b]pyridin-2-yl)-6-methoxy-N,N-dimethylpicolinamide], the IC50 at TBK1 and on IKKε was below 100 nM each time. Turning to `COc1cc(C(=O)N(C)C)ccc1-c1cc2nccc(-c3cc(C#N)c(OC4CCOCC4)c(C4CC4)c3)c2o1` [Compound 307, 4-(7-(3-cyano-5-cyclopropyl-4-(tetrahydro-2H-pyran-4-yloxy)phenyl)furo[3,2-b]pyridin-2-yl)-3-methoxy-N,N-dimethylbenzamide], the IC50 at TBK1 and at IKKε was 100 to 1000 nM throughout. With `COc1cc(C(=O)N(C)C2CC2)ccc1-c1cc2nccc(-c3ccc(OC4CCOCC4)c(C#N)c3)c2o1` [Compound 60, 4-{7-[3-Cyano-4-(tetrahydro-pyran-4-yloxy)-phenyl]-furo[3,2-b]pyridin-2-yl}-N-cyclopropyl-3-methoxy-N-methyl-benzamide], the IC50 on TBK1 and at IKKε was below 100 nM throughout. On to `CN(C)C(=O)c1ccc(-c2cc3nccc(-c4ccc(OC5CCOCC5)c(C#N)c4)c3o2)c(O)c1` [Compound 264, 4-(7-(3-cyano-4-(tetrahydro-2H-pyran-4-yloxy)phenyl)furo[3,2-b]pyridin-2-yl)-3-hydroxy-N,N-dimethylbenzamide], for which the IC50 on TBK1 and on IKKε was below 100 nM each time. With `COc1cc(C(=O)N[C@@H]2CCNC[C@@H]2F)ccc1-c1cc2nccc(-c3ccc(NC4CCOCC4)c(C#N)c3)c2o1` (single isomer, unassigned) [Compound 251, 4-(7-(3-cyano-4-(tetrahydro-2H-pyran-4-ylamino)phenyl)furo[3,2-b]pyridin-2-yl)-N-(3-fluoropiperidin-4-yl)-3-methoxybenzamide hydrochloride], the IC50 on TBK1 and at IKKε was below 100 nM throughout. Consider `CN(C)C(=O)c1ccc(-c2cc3nccc(-c4ccc(C(C)(C)N5CCOCC5)c(C#N)c4)c3o2)cc1` [Compound 223, 4-(7-(3-cyano-4-(2-morpholinopropan-2-yl)phenyl)furo[3,2-b]pyridin-2-yl)-N,N-dimethylbenzamide hydrochloride], for which the half-maximal inhibitory concentration (IC50) on TBK1 and at IKKε was below 100 nM throughout. On to `CN(C)C(=O)c1cnc(-c2cc3nccc(-c4cc(F)c(OC5CCOCC5)c(C#N)c4)c3o2)c(F)c1` [Compound 247, 6-(7-(3-cyano-5-fluoro-4-(tetrahydro-2H-pyran-4-yloxy)phenyl)furo[3,2-b]pyridin-2-yl)-5-fluoro-N,N-dimethylnicotinamide], for which the concentration for half-maximal inhibition (IC50) at TBK1 and on IKKε was 100 to 1000 nM in each case. As for `CN(C)C(=O)c1ccc(-c2cc3nccc(-c4ccc(N5CC[C@H](F)C5)c(C#N)c4)c3o2)nc1` (single isomer, unassigned) [Compound 273, 6-(7-(3-cyano-4-(3-fluoropyrrolidin-1-yl)phenyl)furo[3,2-b]pyridin-2-yl)-N,N-dimethylnicotinamide hydrochloride], the IC50 at TBK1 and on IKKε was below 100 nM each time.

`COc1cc(C(=O)N2C[C@H]3C[C@@H](O)C[C@H]3C2)ccc1-c1cc2nccc(-c3ccc(NC4CCOCC4)c(C#N)c3)c2o1` [Compound 81, 5-{2-[4-((3aR,5R,6aS)-5-Hydroxy-hexahydro-cyclopenta[c]pyrrole-2-carbonyl)-2-methoxy-phenyl]-furo[3,2-b]pyridin-7-yl}-2-(tetrahydro-pyran-4-ylamino)-benzonitrile]: the 50% inhibitory concentration (IC50) at TBK1 and on IKKε was below 100 nM throughout. On to `CN(C)C(=O)c1ccc(-c2cc3nccc(-c4ccc(Oc5cccc(F)c5)c(C#N)c4)c3o2)cc1` [Compound 176, 4-{7-[3-Cyano-4-(3-fluoro-phenoxy)-phenyl]-furo[3,2-b]pyridin-2-yl}-N,N-dimethyl-benzamide], for which the half-maximal inhibitory concentration (IC50) at TBK1 and at IKKε was 100 to 1000 nM each time. Turning to `COc1cc(C(=O)N(C)C)cnc1-c1cc2ncc(Cl)c(-c3ccc(OC4CCOCC4)c(C#N)c3)c2o1` [Compound 336, 6-[6-chloro-7-[3-cyano-4-(oxan-4-yloxy)phenyl]furo[3,2-b]pyridin-2-yl]-5-methoxy-N,N-dimethylpyridine-3-carboxamide hydrochloride], the concentration for half-maximal inhibition (IC50) on TBK1 and at IKKε was 1000 to 5000 nM each time. Consider `CCN(CC)C(=O)c1ccc(-c2cc3nccc(-c4ccc(NC5CCOCC5)c(C#N)c4)c3o2)c(OC)c1` [Compound 259, 4-(7-(3-cyano-4-(tetrahydro-2H-pyran-4-ylamino)phenyl)furo[3,2-b]pyridin-2-yl)-N,N-diethyl-3-methoxybenzamide], for which the IC50 at TBK1 and at IKKε was below 100 nM in each case.

With `CN(C)C(=O)c1ccc(-c2cc3nccc(-c4ccc(OC5CCOCC5)c(C#N)c4)c3o2)c(Cl)c1` [Compound 239, 3-chloro-4-(7-(3-cyano-4-(tetrahydro-2H-pyran-4-yloxy)phenyl)furo[3,2-b]pyridin-2-yl)-N,N-dimethylbenzamide], the half-maximal inhibitory concentration (IC50) at TBK1 and on IKKε was below 100 nM throughout. Regarding `COc1cc(C(=O)N(C)C)ccc1-c1cc2nccc(-c3cc(F)c(N(C)C4CCOCC4)c(C#N)c3)c2o1` [Compound 237, 4-(7-(3-cyano-5-fluoro-4-(methyl(tetrahydro-2H-pyran-4-yl)amino)phenyl)furo[3,2-b]pyridin-2-yl)-3-methoxy-N,N-dimethylbenzamide], the IC50 at TBK1 and on IKKε was below 100 nM each time. With `CN(C)C(=O)c1ccc(-c2cc3nccc(-c4ccc(Oc5ccccc5F)c(C#N)c4)c3o2)cc1` [Compound 178, 4-{7-[3-Cyano-4-(2-fluoro-phenoxy)-phenyl]-furo[3,2-b]pyridin-2-yl}-N,N-dimethyl-benzamide], the concentration for half-maximal inhibition (IC50) on TBK1 and at IKKε was 100 to 1000 nM each time. For `CN(C)C(=O)c1ccc(-c2cc3nccc(-c4ccc(Oc5ccncc5)c(C#N)c4)c3o2)cc1` [Compound 200, 4-{7-[3-Cyano-4-(pyridin-4-yloxy)-phenyl]-furo[3,2-b]pyridin-2-yl}-N,N-dimethyl-benzamide], the IC50 on IKKε was above 5000 nM. On to `CC1CC(Oc2ccc(-c3ccnc4cc(-c5ccc(C(=O)N(C)C)cc5)oc34)cc2C#N)CC(C)O1` (centres unmarked) [Compound 213, 4-{7-[3-Cyano-4-(2,6-dimethyl-tetrahydro-pyran-4-yloxy)-phenyl]-furo[3,2-b]pyridin-2-yl}-N,N-dimethyl-benzamide], for which the half-inhibitory concentration (IC50) on IKKε was above 5000 nM. On the same count and under the same terms, under `COC(=O)c1ccc(-c2cc3nccc(-c4ccc(OC5CC6(COC6)C5)c(C#N)c4)c3o2)cc1` [Compound 204] stands 100 to 1000 nM.
